Results as given in patent US20030113330A1, “Methods for treating pulmonary fibrosis” (priority 1999, published 2003).
Entries after “also recorded” stand apart in the source; their conditions may differ. Where a SMILES comes first, the peptide text is derived from it. The star is where a group is joined. Cbz = O=C(OCc1ccccc1)*; CH2F = FC*

Experiments:
primary rat AEC [1] = test: Fas ligand-induced apoptosis of primary rat alveolar epithelial cells; format: cell-based; conditions: lisinopril 500 ng/ml; for inhibition of Fas ligand-induced apoptosis of primary rat AEC (words): captopril, caspase inhibitors 60 uM
Method: Lung Cell Isolation and Detection of Apoptosis In Vitro. Primary alveolar epithelial cells (AEC) were isolated from adult male Wistar rats as described above. The primary cells were studied at day two of culture, a time at which they are type II cell-like by accepted morphologic and biochemical criteria, see Paine et al., Am. J. Physiol. […] All cells were seeded in 24-well or 6-well chambers, and all experiments were conducted at subconfluent densities of 80-90% in serum-free Ham's F12 medium. Test reagents were diluted with Ham's F12 medium and were applied for 20 hours at 37° C. in a 5% CO2 incubator.
Detection of apoptotic cells with propidium iodide (PI) was conducted as described above, following digestion of ethanol-fixed cells with DNAse-free RNAse in PBS containing 5 ug/ml PI.
Expression of FAS by alveolar epithelial cells is observed during bleomycin-induced fibrogenesis in mice. See Hagimoto, et al., Am. J. Respir. Cell Mol. Biol. 16:91-101 (1997). […] Apoptosis was detected by quantitation of fragmented nuclei (see above).
Cell Culture and Detection of Apoptosis. The human lung adenocarcinoma cell line A549 was obtained from American Type Culture Collection and cultured in Ham's F12 medium supplemented with 10% fetal bovine serum (FBS). Primary alveolar epithelial cells were isolated from adult male Wistar rats as described earlier (Uhal, B. D., I. Joshi, A. True, S. Mundle, A. Raza, A. Pardo and M. Selman. Fibroblasts isolated after fibrotic lung injury induce apoptosis of alveolar epithelial cells in vitro. Am. J. Physiol. 269:L819-L828, 1995); Wang, R., A. Zagariya, 0. Ibarra-Sunga, C. […] Am. J. Physiol. 276:L885-L889 (1999)). […] All cells were seeded in 24-well or 6-well chambers, and all experiments were conducted at subconfluent densities of 80-90% in serum-free Ham's F12 medium. Test reagents were diluted with serum-free Ham's F12 medium and were applied under serum-free conditions for 20 hours at 37C. in a 5% CO2 incubator. Detection of apoptotic cells with propidium iodide (PI) was conducted as described above Am. J. Physiol. 275:L1013-1017 (1998); Uhal et al., following digestion of ethanol-fixed cells with DNAse-free RNAse in PBS containing 5 μg/ml PI. In all assays, detached cells were retained by centrifugation of the culture vessels during fixation with 70% ethanol, or by retention of culture media and recovery by centrifugation before assay.
Apoptosis was detected by nuclear fragmentation as described above.

primary rat AEC [2] = test: Angiotensin II-induced apoptosis in primary rat AEC (nuclear fragmentation, PI); format: cell-based; conditions: ANGII 5.0 uM; saralasin 50 ug/ml, lisinopril 500 ng/ml
Excerpt: Cell Culture. The human lung adenocarcinoma cell line A549 was obtained from American Type Culture Collection and cultured in Ham's F12 medium supplemented with 10% fetal bovine serum (FBS). Primary alveolar epithelial cells were isolated from adult male Wistar rats as described in Uhal et al., Am. J. Physiol. Suppl. (Oct.) 261:110-117 (1991) and Uhal et al., Am. J. Physiol. 269:L819-L828 (1995). The primary cells were studied at day two of culture, a time at which they are type II cell-like by accepted morphologic and biochemical criteria, see Uhal, Am. J. Physiol. 272:L1031-L1045 (1997). […] J. Physiol. Suppl. (October) 261:110-117 (1991). All cells were seeded in 24-well or 6-well chambers, and all experiments were conducted at subconfluent densities of 80-90% in serum-free Ham's F12 medium. Test reagents were diluted with Ham's F12 medium and were applied for 20 h at 37° C. in a 5% CO2 incubator.
Detection of Apoptosis. Detection of apoptotic cells with propidium iodide (PI) was conducted as described in Uhal, et al., Am. J. Physiol. 275:L1013-1017 (1998) following digestion of ethanol-fixed cells with DNAse-free RNAse in PBS containing 5 ug/ml PI. Assay of Annexin V binding by flow cytometry was performed essentially as described for human lung fibroblasts in Uhal, et al., Am. J. Physiol. 275:L998-L1005 (1998) after trypsinization of cells from culture vessels. Assay of Caspase-3 activity was performed on viable suspension cultures as reported in Uhal, et al., Am. J. Physiol. 275:L1013-1017 (1998). In all assays, detached cells were retained by centrifugation of the culture vessels during fixation with 70% ethanol, or by retention of culture media and recovery by centrifugation before assay.
For microscopy, cells were cultured on glass cover slips, incubated with test reagents and fixed with 70% ethanol. The fixed cells were immunolabeled overnight at 4° C. with monoclonal antibodies to cytokeratins 7 and 19 (Chemicon International, Temecula, Calif.), and then for one hour at 37° C. with anti-mouse IgG-rhodamine and DNAse-free RNAse (Boehringer Mannheim, Indianapolis, Ind.) The cover slips were then rinsed in distilled water three times and mounted under Fluoromount Solution (Southern Biotechnology Associates, Birmingham, Ala.) containing 5 ug/ml propidium iodide. Photomicroscopy was performed as described in Uhal, et al., Am. J. Physiol. 275:L1013-1017 (1998).
Apoptosis in alveolar epithelial cells was quantitated by fluorescence detection of chromatin condensation and nuclear fragmentation in alcohol-fixed cells stained with propidium iodide. See Uhal, et al., Am. J. Physiol. 275:L1013-1017 (1998). […] After 20 h, the culture vessel was centrifuged to retain detached cells and labeled with anticytokeratin antibodies and propidium iodide. […] Double labeling with PI and monoclonal antibodies to cytokeratins 7 and 19 identified cells with both apoptotic nuclear morphology and positive anticytokeratin immunoreactivity.

Row | Compound | inhibition of Fas ligand-induced apoptosis of primary rat AEC (words) (primary rat AEC [1]) | inhibition of ANGII-induced apoptosis of primary rat AEC (primary rat AEC [2]) | inhibition of Fas ligand-induced apoptosis of primary rat AEC (words) (primary rat AEC [1]; listed as ZVADfmk) | inhibition at 0.5 µg/mL (primary rat AEC [1]; Rattus norvegicus, Epithelial cell, read-out: inhibition of FASL-induced apoptosis, FASL 25 ng/ml, saralasin 5 mg/ml) [%] | inhibition of FASL-induced apoptosis (primary rat AEC [1]; FASL 25 ng/ml, saralasin 5 mg/ml) [%]
1 | CCc1nc2c(C)cc(C)nc2n1Cc1ccc(-c2ccccc2-c2nn[nH]n2)cc1 [L158809] | could block | could block |  |  | 
2 | COc1ccc2c(c1OCc1ccccc1)C[C@@H](C(=O)O)N(C(=O)C(c1ccccc1)c1ccccc1)C2 [PD126055] | unable to significantly inhibit | unable to significantly inhibit |  |  | 
3 | COC(=O)C[C@H](NC(=O)[C@H](C)NC(=O)[C@@H](NC(=O)OCc1ccccc1)C(C)C)C(=O)CF [ZVAD-fmk, N-benzylcarboxy-Val-Ala-Asp-[O-Me]-CH2F] (Cbz-Val-Ala-Asp(OMe)-CH2F) | comparable efficacy to inhibit apoptosis |  | abrogate |  | 
4 | C[C@H](CS)C(=O)N1CCC[C@H]1C(=O)O [captopril] | comparable efficacy to inhibit apoptosis; also recorded: blocked |  |  |  | 
5 | NCCCC[C@H](N[C@@H](CCc1ccccc1)C(=O)O)C(=O)N1CCC[C@H]1C(=O)O [lisinopril] | blocked | did not block |  | 87 | 
6 | CNCC(=O)N[C@@H](CCCN=C(N)N)C(=O)N[C@H](C(=O)N[C@@H](Cc1ccc(O)cc1)C(=O)N[C@H](C(=O)N[C@@H](Cc1cnc[nH]1)C(=O)N1CCC[C@H]1C(=O)N[C@@H](C)C(=O)O)C(C)C)C(C)C [saralasin] | blocked | completely inhibited |  |  | 92
